The target in this test is T1, Human IP6K1 (Homo sapiens, UniProt Q92551).
T1 construct: GST (N, cleaved yes); made in house; host or cells: C43 E. coli, pGEX-6P-2
Nature of the test: IP6K1 high-throughput screen of the Sigma LOPAC (ADP-Glo Max, single point).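 Further: final compound concentration 10µM in 5% DMSO.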 The class given is biochemical.

Where [1] appears, read: Sigma LOPAC single-point screen, ADP-Glo Max raw signal per well.
The mark [2] stands for this setting: Sigma LOPAC single-point screen, Z-score from plate average and StDev.
Setting [3] is: LOPAC single-point screen, ADP-Glo Max raw signal per well.
Setting [4] is: LOPAC single-point screen, Z-score from raw signal with plate average and StDev.
The mark [5] stands for this setting: LOPAC single-point screen, ADP-Glo Max luminescence raw signal per well.
Where [6] appears, read: LOPAC single-point screen, Z-score relative to plate average and StDev.
Setting [7] is: LOPAC single-point screen, Z-score against plate average and StDev.
[8] abbreviates: LOPAC single-point screen, Z-score from plate average and StDev.

Structures are written as SMILES. Structures can show the parent of a compound that is named as a salt. Where two headings read alike, the source gives them in different places.

T1 sequence (Q92551 whole entry): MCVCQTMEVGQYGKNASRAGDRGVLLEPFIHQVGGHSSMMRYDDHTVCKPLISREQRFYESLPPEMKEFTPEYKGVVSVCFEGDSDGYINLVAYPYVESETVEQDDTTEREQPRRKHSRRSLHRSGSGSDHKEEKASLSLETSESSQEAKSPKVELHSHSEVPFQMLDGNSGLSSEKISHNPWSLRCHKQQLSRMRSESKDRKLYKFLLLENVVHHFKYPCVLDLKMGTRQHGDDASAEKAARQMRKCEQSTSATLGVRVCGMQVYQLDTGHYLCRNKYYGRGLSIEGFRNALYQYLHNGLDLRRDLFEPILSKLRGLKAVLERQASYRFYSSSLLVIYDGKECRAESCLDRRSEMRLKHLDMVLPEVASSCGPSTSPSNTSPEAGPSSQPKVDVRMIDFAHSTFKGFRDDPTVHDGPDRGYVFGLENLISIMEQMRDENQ

On to `C1CCc2nnnn2CC1` [Pentylenetetrazole], for which the “Raw Signal” value under setting [1] is reported as 57450. Also, the Z-score under setting [2] was 0.5136.

For `CCCN1C[C@H](CSC)C[C@@H]2c3cccc4[nH]cc(c34)C[C@H]21` [Pergolide methanesulfonate], the “Raw Signal” value under setting [3] is recorded as 53757. Besides, under setting [4], the Z-score is on record as -0.4404.

With `OCCN1CCN(CCCN2c3ccccc3Sc3ccc(Cl)cc32)CC1` [Perphenazine], the “Raw Signal” value under setting [1] worked out at 57078. The Z-score under setting [2] stood at 0.4511.

On to `NCC(CP(=O)(O)O)c1ccc(Cl)cc1` (stereo not shown) [Phaclofen], for which the “Raw Signal” value under setting [1] is reported as 61057. The compound further came in with a Z-score under setting [2] of 0.9779.

For the compound `NC(=Nc1ccccc1)NC(=O)c1nc(Cl)c(N)nc1N` [Phenamil methanesulfonate], under setting [5], the “Raw Signal” value is recorded as 52022. Moreover, the Z-score under setting [6] was -0.7775.

Turning to `NNCCc1ccccc1` [Phenelzine sulfate], the “Raw Signal” value under setting [1] was determined as 58733. Moreover, the Z-score under setting [2] is recorded as 0.5263.

As for `CN(C)CCC(c1ccccc1)c1ccccn1` (stereo not shown) [Pheniramine maleate], the “Raw Signal” value under setting [3] stood at 57488. Under setting [7], this compound had a Z-score of 0.2845.

Take `CC(COc1ccccc1)N(CCCl)Cc1ccccc1` (stereo not shown) [Phenoxybenzamine hydrochloride]: under setting [1], the “Raw Signal” value is on record as 61919. Under setting [2], the Z-score stood at 0.7056.

On to `Cc1ccc(N(CC2=NCCN2)c2cccc(O)c2)cc1` [Phentolamine mesylate], for which the “Raw Signal” value under setting [3] is 54426. Also, the Z-score under setting [4] is listed as -0.3104.

Under setting [4], `CCCCC1C(=O)N(c2ccccc2)N(c2ccccc2)C1=O` [Phenylbutazone] showed a Z-score of -0.2764.

With `CNC[C@H](O)c1cccc(O)c1` [Phenylephrine hydrochloride], under setting [3], the “Raw Signal” value stood at 56055. Under setting [7], this compound had a Z-score of 0.2792.

Consider `O=C1NC(=O)C(c2ccccc2)(c2ccccc2)N1` [Phenytoin sodium], for which the “Raw Signal” value under setting [5] was determined as 66782. The compound also yielded a Z-score under setting [8] of 2.359.

For the compound `O=C(CCc1ccc(O)cc1)c1c(O)cc(O)cc1O` [Phloretin], the “Raw Signal” value under setting [1] came out at 58655. Besides, under setting [2], the Z-score is listed as 0.5112.

Consider `CCCCCCCCCCCCCC(=O)O[C@@H]1[C@@H](C)[C@@]2(O)[C@@H](C=C(CO)C[C@]3(O)C(=O)C(C)=C[C@@H]23)[C@@H]2C(C)(C)[C@]12OC(C)=O` [Phorbol 12-myristate 13-acetate], for which the “Raw Signal” value under setting [3] turned out to be 57693. Also, the Z-score under setting [7] was 0.3243.

Take `C[C@@H]1O[C@@H]1P(=O)(O)O` [Phosphomycin disodium]: the “Raw Signal” value under setting [5] is reported as 62776. The compound also had a Z-score under setting [8] of 1.408.

For the compound `O=C(O)CP(=O)(O)O` [Phosphonoacetic acid], the “Raw Signal” value under setting [3] stood at 54653. In addition, the Z-score under setting [4] is reported as -0.2663.

As for `CC(C)C[C@H](NP(=O)([O-])O[C@H]1O[C@H](C)[C@@H](O)[C@H](O)[C@@H]1O)C(=O)N[C@@H](Cc1c[nH]c2ccccc12)C(=O)[O-].[Na+].[Na+]` [Phosphoramidon disodium], the “Raw Signal” value under setting [3] was determined as 56521. This compound also displayed a Z-score under setting [7] of 0.0966.

Take `O=C([O-])CCC(NC(=O)c1ccccc1C(=O)[O-])C(=O)[O-].[Na+].[Na+].[Na+]` [Phthalamoyl-L-glutamic acid trisodium]: the “Raw Signal” value under setting [1] was 58114. This compound also came in with a Z-score under setting [2] of 0.4061.

Consider `Oc1cc(O)cc(/C=C/c2ccc(O)c(O)c2)c1` [Piceatannol], for which the “Raw Signal” value under setting [5] turned out to be 49635. In addition, the Z-score under setting [6] is -0.7996.

In the case of `COc1ccc(C(=O)NCc2cccnc2)cc1C(=O)NCc1cccnc1` [Picotamide], the “Raw Signal” value under setting [3] amounted to 56073. This compound also came in with a Z-score under setting [7] of 0.009557.

As for `CC[C@@H]1C(=O)OC[C@@H]1Cc1cncn1C` [Pilocarpine nitrate], under setting [1], the “Raw Signal” value came out at 59730. The compound further came in with a Z-score under setting [2] of 0.8967.

Turning to `O=c1[nH]c2ccccc2n1C1CCN(CCCC(c2ccc(F)cc2)c2ccc(F)cc2)CC1` [Pimozide], under setting [3], the “Raw Signal” value worked out at 53926. Moreover, the Z-score under setting [7] was -0.07855.

`CC(N/C(=N\C#N)Nc1ccncc1)C(C)(C)C` (stereo not shown) [Pinacidil]: the “Raw Signal” value under setting [3] is given as 55394. The compound also registered a Z-score under setting [4] of -0.1224.

On to `CC(C)NCC(O)COc1cccc2[nH]ccc12` (stereo not shown) [Pindolol], for which, under setting [5], the “Raw Signal” value turned out to be 62809. In addition, the Z-score under setting [8] worked out at 1.414.

Turning to `O=S(=O)(O)C1CCNCC1` [Piperidine-4-sulphonic acid], the “Raw Signal” value under setting [3] came to 54931. Moreover, under setting [4], the Z-score was -0.2123.

For `NC(=O)CN1CCCC1=O` [Piracetam], the “Raw Signal” value under setting [1] was found to be 58233. This compound also yielded a Z-score under setting [2] of 0.6451.

As for `Cc1nc2ccccn2c(=O)c1CCN1CCC(C(=O)c2ccc(F)cc2)CC1` [Pirenperone], the “Raw Signal” value under setting [3] is 53743. The compound further gave a Z-score under setting [4] of -0.4431.

Consider `CN1CCN(CC(=O)N2c3ccccc3C(=O)Nc3cccnc32)CC1` [Pirenzepine dihydrochloride], for which the “Raw Signal” value under setting [1] is 62871. This compound displayed a Z-score under setting [2] of 1.33.

Take `Cc1ccc(=O)n(-c2ccccc2)c1` [Pirfenidone]: the “Raw Signal” value under setting [3] was 52089. Under setting [4], this compound had a Z-score of -0.3872.

Turning to `O=C(O)/C=C\C(=O)O.c1cnc(N2CCN(Cc3ccc4c(c3)OCO4)CC2)nc1` [Piribedil maleate], the “Raw Signal” value under setting [1] came out at 62540. Under setting [2], the Z-score stood at 1.266.

For `CN1C(C(=O)Nc2ccccn2)=C(O)c2ccccc2S1(=O)=O` [Piroxicam], the “Raw Signal” value under setting [1] was 59564. Under setting [2], this compound yielded a Z-score of 0.8688.

Take `COc1cc([C@@H]2c3cc4c(cc3[C@H](O)[C@H]3COC(=O)[C@H]23)OCO4)cc(OC)c1OC` [Podophyllotoxin]: the “Raw Signal” value under setting [5] is reported as 50929. Besides, the Z-score under setting [6] is listed as -0.5821.

For `O=C(C1CCCCC1)N1CC(=O)N2CCc3ccccc3C2C1` (stereo not shown) [Praziquantel], the “Raw Signal” value under setting [3] is reported as 53749. For the same compound, the Z-score under setting [4] is -0.1083.

Regarding `COc1cc2nc(N3CCN(C(=O)c4ccco4)CC3)nc(N)c2cc1OC` [Prazosin hydrochloride], under setting [3], the “Raw Signal” value was determined as 56945. Further, the Z-score under setting [7] was found to be 0.179.

On to `CC(=O)[C@H]1CC[C@H]2[C@@H]3CC=C4C[C@@H](OS(=O)(=O)[O-])CC[C@]4(C)[C@H]3CC[C@]12C.[Na+]` [Pregnenolone sulfate sodium], for which the “Raw Signal” value under setting [5] is 62981. This compound also showed a Z-score under setting [8] of 1.352.

Take `CCCNC(C)C(=O)Nc1ccccc1C` (stereo not shown) [Prilocaine hydrochloride]: under setting [3], the “Raw Signal” value came to 55610. The compound also yielded a Z-score under setting [7] of -0.08039.

Consider `CCC1(c2ccccc2)C(=O)NCNC1=O` [Primidone], for which, under setting [1], the “Raw Signal” value was determined as 58828. The same compound gave a Z-score under setting [2] of 0.5448.

As to `CCN(CC)CCNC(=O)c1ccc(N)cc1` [Procainamide hydrochloride], the “Raw Signal” value under setting [5] worked out at 51793. The compound also registered a Z-score under setting [6] of -0.822.

With `CCN(CC)CCOC(=O)c1ccc(N)cc1` [Procaine hydrochloride], under setting [1], the “Raw Signal” value was determined as 61379. The compound further yielded a Z-score under setting [2] of 1.04.

For the compound `CN1CCN(CCCN2c3ccccc3Sc3ccc(Cl)cc32)CC1` [Prochlorperazine dimaleate], the “Raw Signal” value under setting [1] amounted to 58817. Under setting [2], this compound returned a Z-score of 0.5427.

For `CC(=O)[C@H]1CC[C@H]2[C@@H]3CCC4=CC(=O)CC[C@]4(C)[C@H]3CC[C@]12C` [Progesterone], the “Raw Signal” value under setting [3] came to 53663. This compound also yielded a Z-score under setting [4] of -0.1227.

For `CCCN(CCC)C(=O)C(CCC(=O)O)NC(=O)c1ccccc1` (stereo not shown) [Proglumide], the “Raw Signal” value under setting [3] was found to be 53192. In addition, the Z-score under setting [4] is recorded as -0.2019.

Regarding `CN(C)CCCN1c2ccccc2Sc2ccccc21` [Promazine hydrochloride], the “Raw Signal” value under setting [5] came out at 63198. The compound further gave a Z-score under setting [8] of 1.394.

As to `CC(CN1c2ccccc2Sc2ccccc21)N(C)C` (stereo not shown) [Promethazine hydrochloride], the “Raw Signal” value under setting [1] was determined as 57662. Also, under setting [2], the Z-score is on record as 0.5492.

As to `CCCNCC(O)COc1ccccc1C(=O)CCc1ccccc1` (stereo not shown) [Propafenone hydrochloride], the “Raw Signal” value under setting [3] is recorded as 54187. Also, under setting [7], the Z-score is given as -0.0347.

As for `CC(C)[N+](C)(CCOC(=O)C1c2ccccc2Oc2ccccc21)C(C)C` [Propantheline bromide], under setting [1], the “Raw Signal” value was found to be 58434. This compound registered a Z-score under setting [2] of 0.4683.

On to `CCCn1cnc2c1c(=O)n(CCCCC(C)=O)c(=O)n2C` [Propentofylline], for which the “Raw Signal” value under setting [3] was found to be 54119. Moreover, the Z-score under setting [4] is -0.3701.

`CCC(=O)c1ccc2c(c1)N(CCCN(C)C)c1ccccc1S2` [Propionylpromazine hydrochloride]: the “Raw Signal” value under setting [3] came to 56049. Besides, the Z-score under setting [7] was determined as 0.004895.

As for `CC(C)c1cccc(C(C)C)c1O` [Propofol], the “Raw Signal” value stood at 48098 and the Z-score is -1.436.

`C=CC1=C(C)c2cc3[nH]c(cc4nc(cc5[nH]c(cc1n2)c(C)c5CCC(=O)O)C(CCC(=O)O)=C4C)c(C)c3C=C` [Protoporphyrin IX disodium]: the “Raw Signal” value under setting [3] is reported as 54546. The Z-score under setting [4] is recorded as -0.2871.

Consider `CNCCCC1c2ccccc2C=Cc2ccccc21` [Protriptyline hydrochloride], for which the “Raw Signal” value under setting [3] is on record as 55179. The compound also displayed a Z-score under setting [4] of -0.1641.

With `CC(C)[C@H](CO)Nc1nc(Nc2cccc(Cl)c2)c2ncn(C(C)C)c2n1` [Purvalanol A], under setting [3], the “Raw Signal” value is 54135. For the same compound, the Z-score under setting [7] is on record as -0.04344.

In the case of `NCCCCN` [Putrescine dihydrochloride], under setting [3], the “Raw Signal” value was determined as 56490. Under setting [7], the Z-score came out at 0.09057.

In the case of `NC(=O)c1cnccn1` [Pyrazinecarboxamide], the “Raw Signal” value under setting [1] came out at 58526. Moreover, the Z-score under setting [2] is 0.4861.

On to `CN(C)C(=O)Oc1ccc[n+](C)c1` [Pyridostigmine bromide], for which the “Raw Signal” value under setting [3] turned out to be 56672. Further, the Z-score under setting [7] is given as 0.1259.

For the origin of these results see paper PMC5706701, “Development of a homogenous high-throughput assay for inositol hexakisphosphate kinase 1 activity” (PLoS ONE, 2017).
